The structures appear in SMILES notation.

The experiment is described as follows: Inhibition of Influenza A virus H5N1 neuraminidase.
In turn, `O=C(CSc1nnc(-c2ccccc2)o1)NCCc1cccc(F)c1` showed an IC50 of 3580 nM.

On to `O=C(CSc1nnc(-c2ccc(F)cc2)o1)NCc1ccc(Cl)c(Cl)c1`, for which the IC50 stood at 450 nM. Under `Cc1ccc(-c2nnc(SCC(=O)NCc3ccc(Cl)c(Cl)c3)o2)cc1` stands 2050 nM; under `O=C(CSc1nnc(-c2ccc(O)cc2)o1)NCc1ccc(Cl)c(Cl)c1`, 1180 nM. Next, `Cc1cc([N+](=O)[O-])ccc1NC(=O)CSc1nnc(COc2ccc3ccccc3c2)o1`: 6150 nM. `COc1cccc(CCNC(=O)CSc2nnc(-c3ccc(C)cc3)o2)c1` yielded an IC50 of 150000 nM. Regarding `COc1cccc(CCNC(=O)CSc2nnc(-c3ccc(F)cc3)o2)c1`, it took 56700 nM to reach half-maximal inhibition (IC50). `COc1cccc(CCNC(=O)CSc2nnc(-c3ccccc3)o2)c1`: the IC50 was 260 nM.

`COc1cccc(CCNC(=O)CSc2nnc(-c3ccc(O)cc3)o2)c1` displayed an IC50 of 360 nM. On to `COc1ccc(-c2nnc(SCC(=O)NCc3ccc(Cl)c(Cl)c3)o2)cc1`, for which half-maximal inhibition (IC50) required 3950 nM. With `CCC(CC)O[C@@H]1C=C(C(=O)O)C[C@H](N)[C@H]1NC(C)=O` [OSELTAMIVIR CARBOXYLATE], the IC50 was determined as 82 nM. Turning to `O=C(CSc1nnc(-c2ccc(O)cc2)o1)NCCc1cccc(F)c1`, the IC50 was found to be 27 nM.

Regarding `O=C(CSc1nnc(-c2ccccc2)o1)NCc1ccc(Cl)c(Cl)c1`, inhibition was half-maximal at 130 nM (IC50).

On to `O=C(CSc1nnc(-c2ccc(Cl)cc2)o1)NCc1ccc(Cl)c(Cl)c1`, for which the IC50 was 32 nM.

The values are drawn from ChEMBL document CHEMBL5154723 (Bioorg Med Chem, 2022).
